Assay results: PMC7048932, “Examining sterically demanding lysine analogs for histone lysine methyltransferase catalysis” (Scientific Reports, 2020)

Assays:
GLP [1] = target: T1, GLP (Homo sapiens, UniProt Q9H9B1); test: NMR assay of GLP-catalyzed methylation of H3K9 peptides; type: biochemical; conditions: peptide 400 µM, GLP 8 µM, SAM 2 mM, 50 mM Tris-d11.HCl pD 8.0, 1 h, 37 °C
T1 construct: His6 (N); made in house; host or cells: E. coli BL21 (DE3)pLysS-rosetta
T1 sequence (Q9H9B1 1-1298): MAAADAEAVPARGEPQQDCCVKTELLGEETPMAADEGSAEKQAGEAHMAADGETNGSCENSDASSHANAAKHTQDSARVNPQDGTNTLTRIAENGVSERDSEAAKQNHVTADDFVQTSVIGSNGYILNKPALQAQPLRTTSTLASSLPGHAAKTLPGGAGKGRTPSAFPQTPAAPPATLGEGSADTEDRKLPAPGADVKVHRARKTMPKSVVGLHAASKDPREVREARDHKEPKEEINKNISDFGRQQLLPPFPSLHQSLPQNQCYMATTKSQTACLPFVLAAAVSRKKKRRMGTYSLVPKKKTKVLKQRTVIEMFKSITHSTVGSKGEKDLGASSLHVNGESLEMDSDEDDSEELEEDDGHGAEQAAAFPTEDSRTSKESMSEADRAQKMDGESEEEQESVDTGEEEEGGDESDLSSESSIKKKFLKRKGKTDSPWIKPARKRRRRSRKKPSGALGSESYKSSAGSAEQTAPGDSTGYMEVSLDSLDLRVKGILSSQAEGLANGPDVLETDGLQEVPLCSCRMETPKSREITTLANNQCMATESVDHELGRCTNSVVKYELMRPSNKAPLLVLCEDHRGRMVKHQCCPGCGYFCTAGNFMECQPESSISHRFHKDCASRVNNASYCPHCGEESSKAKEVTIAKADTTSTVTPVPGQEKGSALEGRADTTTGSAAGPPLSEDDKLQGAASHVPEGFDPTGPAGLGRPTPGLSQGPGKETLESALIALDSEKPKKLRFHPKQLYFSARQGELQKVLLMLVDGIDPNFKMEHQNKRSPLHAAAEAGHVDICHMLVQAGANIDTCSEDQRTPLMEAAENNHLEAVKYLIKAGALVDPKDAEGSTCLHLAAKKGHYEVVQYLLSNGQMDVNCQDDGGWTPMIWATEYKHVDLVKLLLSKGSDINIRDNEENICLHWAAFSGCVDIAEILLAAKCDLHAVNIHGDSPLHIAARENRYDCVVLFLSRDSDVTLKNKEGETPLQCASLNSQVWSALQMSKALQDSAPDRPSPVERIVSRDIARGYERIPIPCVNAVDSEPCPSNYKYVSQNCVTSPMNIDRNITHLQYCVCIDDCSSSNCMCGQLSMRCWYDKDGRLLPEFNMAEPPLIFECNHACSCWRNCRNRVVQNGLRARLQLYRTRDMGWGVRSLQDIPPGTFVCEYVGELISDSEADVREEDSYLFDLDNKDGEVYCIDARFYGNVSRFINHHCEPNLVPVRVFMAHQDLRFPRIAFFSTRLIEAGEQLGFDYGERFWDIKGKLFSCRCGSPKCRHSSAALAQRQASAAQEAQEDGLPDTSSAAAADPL

GLP [2] = target: T1, GLP; test: MALDI-TOF MS methylation assay of H3K9 peptides with GLP; type: biochemical; conditions: peptide 100 µM, 37 °C
Description: MALDI-MS methyltransferases activity experiments were performed using a Bruker instrument in the reflectron positive mode. For regular methyltransferase standard conditions experiment which carried out in 30 µL total volume, the mixture contains peptide (100 µM), SAM (200 µM), SETD8 or SETD7 (2 µM), in assay buffer 50 mM Tris at optimal pH 8.0. In case of G9a and GLP, similar conditions were used, except (500 µM) of SAM was added to the reaction mixture. […] A 5 µL aliquot of the solution was mixed with 5 µL of MeOH, after which 5 µL of this mixture was mixed with 5 µL of α-cyano-4-hydroxycinamic acid matrix (CHCA, 5 mg/mL in 125:125 µL acetonitrile/water). The spots were placed on a stainless steel MALDI plate (MS 96 target ground steel BC of Bruker, Germany). The mass corresponding to one monomethylation observed as +14 Da, dimethylation observed as +28 Da and trimethylation observed as +42 Da. The enzymatic activity was determined by taking the peak areas of each methylation state, including all isotopes and adducts, and was annotated using FlexAnalysis software (Bruker Daltonics, Germany). […] Methylated peptide substrates were repeated five times and the unmethylated substrates were triplicated. Sequences of the examined peptides are given in (Supplementary Table 1).

[3] = GLP 10 µM, SAM 1 mM, 5 h, MALDI-MS

Substance: ARTKQTAR(Kba9)STGGKA [H3Kba9]
- GLP-catalyzed methylation by 1H NMR / 1H-13C HSQC, result in words (GLP [1]): not methylated
- GLP-catalyzed methylation, result in words (GLP [2]; GLP 2 µM, SAM 500 µM, 1 h, MALDI-TOF MS): traces detected
- GLP-catalyzed methylation, result in words, increased GLP/SAM (GLP [2]; [3]): monomethylation
- GLP-catalyzed monomethylation, increased GLP/SAM (GLP [2]; [3]): 55%
